Laboratory results taken from US20190142835A1, “INHIBITION OF AUTOPHAGY USING PHOSPHOLIPASE A2 INHIBITORS” (OREGON HEALTH & SCIENCE UNIVERSITY, priority 2017, published 2019).

Assays:
ACHN cells [1] = assay: Lipid droplet staining (Bodipy 493/503), ACHN; format: cell-based, human; settings: 24 hrs; p<0.001 vs control
Procedure: (§1) Cells were grown on coverslips then treated with drug for 24 hours. Cells were fixed in 4% paraformaldehyde for 15 min, rinsed with PBS. Cells were washed with a 1% saponin solution for 15 min at room temperature then washed several times in PBS to remove detergent. Cells were then incubated in Bodipy (ThermoFisher #D3922) at a final concentration of 1 uM for 10 min. Bodipy was removed and slides were rinsed with PBS then air dried and mounted on slides using Dako mounting media with Dapi.

[2] = tested on: Atg5−/− murine embryonic fibroblasts; assay: Lipid droplet number in Atg5−/− MEFs; format: cell-based, mouse; settings: ATG5 deficient, 24 hr
Procedure: as §1

ACHN cells [3] = assay: Apoptosis (Caspase 3/7-Glo), ACHN; format: cell-based, human; settings: ACHN, 72 h
Procedure: (§2) Apoptosis was determined using Caspase 3/7-Glo assay kit (Promega) following the manufacturer's instructions. Briefly, 2000 cells per well were plated in 96 well plates and cultured for 72 h. […] Caspase 3/7 activity was measured using a luminometer. Luminescence values were normalized by cell numbers.

[4] = tested on: PI3K, mTORC1 and mTORC2 signaling; assay: Western blotting of PI3K-AKT-mTOR signaling; format: cell-based, human; settings: added to CYT387
Procedure: Cells were plated in 6 well dishes and treated the following day with the indicated agents. Treatments were for 24 hours, after which cells were washed with ice cold PBS and lysed with RIPA buffer (Sigma). Phosphatase inhibitor cocktail set II and protease inhibitor cocktail set III (EMD Millipore) were added at the time of lysis. Lysates were centrifuged at 15,000 g×10 min at 4 degrees C. Protein concentrations were calculated based on a BCA assay (Thermo Scientific) generated standard curve. Proteins were resolved using the NuPAGE Novex Mini Gel system on 4% to 12% Bis-Tris Gels (Invitrogen). For western blotting, equal amounts of cell lysates (15-20 μg of protein) were resolved with SDSPAGE, and transferred to membranes. The membrane was probed with primary antibodies, washed, and then incubated with corresponding fluorescent secondary antibodies and washed. The fluorescent signal was captured using LI-COR (Lincoln, Nebr.) Odyssey Imaging System, and fluorescent intensity was quantified using the Odyssey software where indicated. The following antibodies were used for Western blots: p-S6 (S240/244), S6, LC3B, p-Akt(S473), p-Akt(T308), Akt, cleaved caspase3 (Cell Signaling Technologies). p-Stat3 (Y705), Stat3 and β-actin (AC15) (Abcam). Ki67 (Dako) and cleaved caspase3 (Cell Signaling Technologies) were used for immunohistochemistry. […] BX795 and GDC0941 were purchased from Sigma.

ACHN cells [5] = assay: Cell viability (CellTiter-Glo), ACHN; format: cell-based, human; settings: ACHN, 3 days
Procedure: (§3) Cell viability assays were performed by plating 2000 cells/well in 96-well plates in triplicate and treating the following day with the indicated agent. The experiment was continued for 3 days and then cell viability was determined using CellTiter-Glo assay kit (Promega).
The assay was measured using a luminometer. […] Experimental results are the average of at least three independent experiments.

[6] = tested on: Atg5+/+ murine embryonic fibroblasts; assay: Lipid droplet number in Atg5+/+ MEFs; format: cell-based, mouse; settings: 24 hr
Procedure: as §1

SN12C cells [7] = assay: Apoptosis (Caspase 3/7-Glo), SN12C; format: cell-based, human; settings: 72 h
Procedure: as §2

SN12C cells [8] = assay: Cell viability (CellTiter-Glo), SN12C; format: cell-based, human; settings: 3 days
Procedure: as §3, with “(Promega). The assay was measured using a luminometer. […] Experimental results are the average of at least three independent experiments.” for “(Promega).”

ACHN cells [9] = assay: Redox homeostasis (p-AMPK, NADPH, GSSG/GSH, ROS); format: cell-based, human; settings: 2 μM CYT387, 10 μM MK2206, 24 hr
Procedure: ROS levels were measured with Cellrox Deep Red (Molecular Probes). Cell were plated in a 96 well clear bottom with black sides cell culture plate. […] The complete media+drug was removed after 24 hours and replaced with 5 μM of Cellrox Deep Red in media. Cells were incubated for 30 min at 370 C then washed with PBS. Fluorescence signal was detected using a Bioteck Cytation 5 plate reader. Data was analyzed using Prism software.

ACHN cells [10] = assay: Cellular respiration (XF96 Seahorse, ECAR and OCR); format: cell-based, human; settings: XF-96 Extracellular Flux Analyzer
Procedure: Oxygen consumption and extracellular acidification rates were carried out in a XF96 Seahorse Analyzer (Seahorse Bioscience, Billerica, Mass., USA). Cells were plated in the wells of 96-well plates (8×10^3 cells/well; XF96 plates, Seahorse Bioscience, North Billerica, Mass.) and incubated at 37° C. overnight. The next day, cells were treated with indicated drugs for 24 hours and then the medium was changed to XF Assay Medium and loaded with glucose, oligomycin, and 2-DG, respectively, as manufacture's recommendation.

glycolysis = assay: Glucose uptake and lactate excretion as readouts for glycolysis; format: cell-based, human
Description: The PI3K-AKT-mTOR pathway regulates multiple steps in glucose uptake and metabolism.

SN12C xenografts = assay: SN12C xenograft study; format: in vivo; settings: SN12C; CYT387 50 mg/kg/day or MK2206 60 mg/kg/day oral gavage
Procedure: (§4) 6-week old mice were utilized for human renal cell carcinoma xenografts. For both ACHN and SN12C cell lines 2×10^6 cells were diluted in 50 μl of PBS and 50 μl of Matrigel (BD Biosciences) and were injected subcutaneously into the right and left flank of each mouse. Tumors were monitored until they reached an average size of 50-80 mm3 (approximately 2 weeks), at which point treatments were begun. […] MK2206 (60 mg/kg/day) were administered by oral gavage 2-3 day/week. […] Tumors and mouse weights were measured twice weekly. At least 6-8 mice per treatment group were included. All mice were euthanized using CO2 inhalation followed by cervical dislocation per institutional guidelines at Oregon Health and Science University. Experiments were approved by the Institutional Animal Care and Use Committee at OHSU.
(§5) Immunostaining was performed following deparaffinization and rehydration of slides. Antigen retrieval was performed in a pressure cooker using citrate buffer (pH 6.0) for 4 min. Nonspecific binding was blocked using Vector mouse IgG blocking serum 30 min at room temperature. Samples were incubated at room temperature with rabbit monoclonal antibodies pS6 (CST #5364) cleaved caspase 3 (CST#9661), and Ki67 (Dako#M7240).
Slides were developed with Vector Immpress rabbit IgG (#MP7401) and Vector Immpress mouse IgG (#MP7400) for 30 min at room temperature. Chromogenic detection was performed using Vector Immpact DAB (#SK4105) for 3 min. Slides were counterstained with hematoxylin. A 3DHistech MIDI Scanner (Perkin Elmer) was used to capture whole slide digital images with a 20× objective. […]
Mouse tumor size was analyzed by 2-way ANOVA with time and drug as factors, using GraphPad Prism. Mouse weight during treatment was analyzed by repeated measures 2-way ANOVA, with time and drug as factors. […] Immunohistochemistry: P-values were calculated using one-way ANOVA, with Bonferroni's multiple comparison test. * denotes P<0.05, ** denotes P<0.01, and *** denotes P<0.001 throughout this disclosure. […]

ACHN xenografts = assay: ACHN xenograft study; format: in vivo
Procedure: as §4, §5
Slides were developed with Vector Immpress rabbit IgG (#MP7401) and Vector Immpress mouse IgG (#MP7400) for 30 min at room temperature. Chromogenic detection was performed using Vector Immpact DAB (#SK4105) for 3 min. Slides were counterstained with hematoxylin. A 3DHistech MIDI Scanner (Perkin Elmer) was used to capture whole slide digital images with a 20× objective. Images were converted to into MRXS files and computer graphic analysis was completed using inForm 1.4.0 Advanced Image Analysis Software (Perkin Elmer).
Mouse tumor size was analyzed by 2-way ANOVA with time and drug as factors, using GraphPad Prism. Mouse weight during treatment was analyzed by repeated measures 2-way ANOVA, with time and drug as factors. A P value less than 0.05 was considered statistically significant. Immunohistochemistry: P-values were calculated using one-way ANOVA, with Bonferroni's multiple comparison test. * denotes P<0.05, ** denotes P<0.01, and *** denotes P<0.001 throughout this disclosure. Metabolite fold-changes were computed and visualized in Python script, using the openpyxl package (for importing Excel files) and the matplotlib package (for visualizing fold changes).

Which “number of lipid droplets” value (ACHN cells [1]) does the source give for `NC1(c2ccc(-c3nc4ccn5c(=O)[nH]nc5c4cc3-c3ccccc3)cc2)CCC1` [MK2206] here?
The value was “increase in the number of lipid droplets”.

What about the “size of lipid droplets” value (ACHN cells [1]) of the same compound?
The value was “increase in the size of lipid droplets”.

What about the lipid droplets [2] of the same compound?
Its lipid droplets is “no increase in lipid droplets”.

What about the “apoptosis (cleaved-caspase 3/7)” value (ACHN cells [3]) of the same compound?
Its value is “little or no effect on apoptosis”.

And the “effect on mTORC1 activity in cells treated with CYT387” value [4]?
Its value is “additive inhibitory effect on mTORC1 activity”.

What about the “proliferation (cell viability)” value (ACHN cells [5]) of the same compound?
The value was “some anti-proliferative effects”.

What about the LD numbers [6] of the same compound?
The LD numbers was “significantly increase LD numbers”.

What about the “apoptosis (cleaved-caspase 3/7)” value (SN12C cells [7]) of the same compound?
Its value is “little or no effect on apoptosis”.

And the “proliferation (cell viability)” value (SN12C cells [8])?
Its value is “some anti-proliferative effects”.

And the GSSG/GSH ratios (ACHN cells [9])?
Its GSSG/GSH ratios is “maintains GSSG/GSH ratios”.

And the NADPH levels (ACHN cells [9])?
Its NADPH levels is “increases NADPH levels”.

What about the ROS (ACHN cells [9]) of the same compound?
Its ROS is “mitigates ROS”.

And the p-AMPK (ACHN cells [9])?
The p-AMPK was “activates p-AMPK”.

What about the ECAR (ACHN cells [10]) of the same compound?
The ECAR was “significantly reduced the ECAR”.

And the “lactate/glucose ratio in extracellular media” value (glycolysis; Control: 1.51)?
The value was 0.81.

What about the glucose uptake (glycolysis; in vitro, 18FDG) of the same compound?
Its glucose uptake is “significantly decreased glucose uptake”.

And the lactate production (glycolysis; in vitro, culture media)?
Its lactate production is “reduced lactate production”.

And the “antitumor effect of single agent” value (SN12C xenografts)?
The value was “exhibited antitumor effect”.

And the “antitumor effect of single agent” value (ACHN xenografts; ACHN, CYT387 50 mg/kg/day or MK2206 60 mg/kg/day oral gavage)?
The value was “exhibited antitumor effect”.

And the “number of adipophilin-positive LDs in tumors” value (ACHN xenografts; treatment day 40, ACHN xenograft tumors, CYT387<MK2206<CYT387+MK2206, p=0.0046)?
Its value is “significantly and incrementally increased”.
